Read-outs that look alike come from different tables or passages of the source.
Columns and labels:
Sprague-Dowley rats = experiment: Cutaneous vascular hyperpermeability induced by PAF Acether in the rat; type: in vivo; conditions: 1 mg/kg IV; for PAF Acether induced wheal, Surface: PAF Acether 25 ng intradermal, 30 mn; for PAF Acether induced wheal, Surface / PAF Acether induced wheal, Coloration OD: p < 0.001; for PAF Acether induced wheal, Coloration OD: optical density at 620 nm; for PAF Acether induced wheal, Coloration % decrease / PAF Acether induced wheal, Surface % decrease: vs control
Procedure: Method: Intradermal injection of 25 ng of PAF Acether in the dorsal region of the rat with simultaneous IV injection of Evans blue dye (60 mg/kg/5 ml) induces vascular hyperpermeability and wheals formation. (for details see Basran GS, Page CP, Paul W and Morley J-Cromoglycate inhibits responses to platelet-activating factor (PAF Acether) in man: an alternative mode of action for DSCG in asthma-Eur. J. Pharma. (1983) 86 143-144).
These wheals were measured (surface in mm^2) at the inner side of the skin 30 mn after the injections and were taken off, put in 4 ml of formamide, incubated at 65° C. during 24 h in order to extract the dye and measure their coloration (optical density at 620 nm).
Groups of 6 Sprague-Dowley rats weighing 200 g were used and each rat received intradermal injections in two sites of the back. The experiment was performed in comparison with a reference compound, D 600 (methoxy verapamil), a calcium-blocker agent.
Treatments: Tested compounds were administered by IV route injected once simultaneously with the dye.

human PRP = experiment: Inhibition of PAF Acether-induced PA, human PRP in vitro; type: cell-based; conditions: PAF Acether 100 nM, read-out: IC Doses (PAF Acether-induced PA, human PRP)
Procedure: (§1) The Inhibition of PAF Acether-induced PA has been studied on rabbit plasma-rich platelets (PRP). Two doses of PAF Acether were used (2.5 nM and 5 nM). The tested compound was added to the medium 3 minutes before PAF Acether and aggregation was followed by monitoring changes in electrical impedance (Whole-Blood aggregometer-chrono-Log); kadsurenone was simultaneously tested as reference compound and the IC50 molar doses of Ginkgolides A, B, C and M and of kadsurenone on PAF Acether-induced rabbit PA (PRP) have been calculated.
The inhibition of PAF Acether-induced PA has been studied on human PRP. The same protocol was used as for rabbit hereinabove.

[1] = test system: rabbit plasma-rich platelets (PRP); experiment: Aggregation induced by other known aggregants (ADP, thrombine, calcium ionophore A 23187, collagen, adrenaline); type: cell-based; conditions: calcium ionophore A 23187, collagen and adrenaline
[2] = test system: rabbit plasma-rich platelets (PRP); experiment: Inhibition of PAF Acether-induced PA, rabbit PRP in vitro; type: cell-based; conditions: Oryctolagus cuniculus, Platelet, average of 10 assays, read-out: IC50 doses on PAF Acether-induced rabbit PA (PRP)
Procedure: as §1
The results obtained are presented in the following table (average values for 10 assays for each dose) and FIG. 1: […]

[3] = test system: guinea-pig lung parenchymal strip; experiment: PAF Acether-induced contraction of superfused lung parenchymal strip; conditions: for inhibition at 30 µg/mL: Cavia porcellus, read-out: change of PAF Acether (3 ng)-induced contraction; for Contraction induced by PAF Acether (3 ng) (Arbitrary Units): preventive superfusion 30 μg/ml, average of 10 determinations
Hartley guinea-pig = experiment: PAF Acether-induced bronchoconstriction in the anesthetized guinea-pig; type: in vivo; conditions: 1 mg/kg IV; for % of bronchoconstriction: 5 minutes before PAF Acether 60 ng/kg IV, % of maximal bronchoconstriction, average of 10 animals; for % of inhibition (bronchoconstriction): vs solvent in the same batch
Procedure: Method: (For details, see B. B. VARGAFTIG, J. LEFORT, F. WAL, M. CHIGNARD and M. C. MEDEIROS-Non-steroidal anti-inflammatory drugs of combined with anti-histamine and anti-serotonin agents interfere with the bronchial and platelet effects of PAF Acether-Enr. J. Pharm. (1982) 82 121-130). Male Hartley guinea-pig (400-500 g) were anesthetized with urethane 2 g/kg Ip., tracheotomised and ventilated by mean of a respiratory pump: 70-80 strokes mn, stroke volume 5 ml, a pneumothorax was done to abolish spontaneous respiration. The right jugular vein was catherized and used for injections.
The initial resistance was kept constant at 10 cm H2 O pressure according to the method of Konzett and Rossler and the overflowed airway was measured with a bronchospasm transducer UGO BASILE connected to a UGO BASILE recorder "GEMINI". Bronchial sensitivity of the animal was checked with acetylcholine (10-40 ng kg^-1 IV) and after constant response was obtained, there were injected, IV, first the propylene glycol and, five minutes later, 60 ng/kg of PAF Acether, which gave the control bronchoconstriction expressed as % of maximal bronchoconstriction given by clamping off the trachea. 40 minutes later, the tested compounds were administered by IV injection and, 5 minutes later, 60 ng/kg of PAF Acether by the same route. This experimentation was conducted on three batches of each 10 animals: first batch for Ginkgolide A, second one for Ginkgolide B and last one for Ginkgolide C, all at the 1 mg/kg dose. The figures of the following table are the average values for the 10 animals of each batch.

human platelets = experiment: Ex vivo PAF Acether-induced PA in man after IV administration; conditions: IV 25 mg, PAF Acether 100 nM
Procedure: […] DMSO).
The same protocol described hereinabove for rabbit was used in man with only one dose of each Ginkgolide (IV 25 mg) and two blood takes (at 0.5 h and 1 h).

New-Zealand rabbits = experiment: PAF Acether-induced shock in the rabbit; type: in vivo; conditions: for Extravasation (O.D.): 2 mg/kg IV perfusion, 30 mn, optical density at 590 nm, average of 10 animals; for Behaviour: behavioural modifications / Behaviour: deaths: 2 mg/kg IV, PAF Acether 2 and 4 nmol/kg, 10 animals per batch
Procedure: Treatment: Tested compounds (Gingkolides A, B and C) or vehicle were perfused in the ear vein in 45 ml NaCl 0.9% for 1 hour before PAF Acether injection. Vehicle consisted of 1.5 ml of propylene glycol completed to 45 ml by isotonic NaCl buffer; Ginkgolides were administered at the dose of 2 mg/kg IV; the figures reported in the following table are the average values of the 10 animals of each batch.

PAF-Acether receptor = target: T1, PAF-Acether receptor (Oryctolagus cuniculus, UniProt G1TEI7); experiment: Competition with 3H-PAF Acether binding, rabbit membrane platelet preparation; conditions: read-out: reduction of 3H-PAF Acether binding
T1 construct: using a rabbit membrane platelet preparation; from tissue; host or cells: rabbit platelets (membrane preparation)
T1 sequence (G1TEI7 1-342): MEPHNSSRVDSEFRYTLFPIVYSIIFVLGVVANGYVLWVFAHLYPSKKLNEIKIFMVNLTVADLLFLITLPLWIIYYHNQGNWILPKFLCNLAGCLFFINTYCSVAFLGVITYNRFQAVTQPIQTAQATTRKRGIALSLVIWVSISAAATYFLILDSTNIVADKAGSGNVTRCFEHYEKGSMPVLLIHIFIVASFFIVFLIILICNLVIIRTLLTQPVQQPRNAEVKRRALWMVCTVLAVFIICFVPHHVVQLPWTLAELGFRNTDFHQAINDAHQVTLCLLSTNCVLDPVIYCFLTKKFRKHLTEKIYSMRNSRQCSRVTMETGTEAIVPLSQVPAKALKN
Text: The competition of the alternative binding of either ^3 H-PAF Acether or one of the Ginkgolides was evidenced by radioactive determinations using a rabbit membrane platelet preparation. (100% control=^3 H-PAF Acether alone).

[4] = test system: guinea-pig mesenteric artery; experiment: Opto-electronic follow-up of PAF Acether-induced thrombus, guinea-pig mesenteric artery; type: in vivo
Text: In this experimental study, 20 guinea-pigs were used. […] Briefly summarized, this method consists in the dissection over a distance of 2 to 3 mm of a branch of the mesenteric artery following gently extraction of a loop of small intestine. By transillumination, the image of this arterial segment is projected onto a set of 30 light-depending resistances (LDR) arranged in two columns of 15 elements each. An LDR element has the property to change its internal resistance as a function of a variation of light intensity. Each LDR is connected into its own Wheatstone bridge, and the changes in light intensity due to thrombus formation will be recorded as variations in electrical potentials and registered as such via a multiplexing device.
In the present investigation, several discriminating parameters are recorded: (a) the t1 interval or the lag period (this is the time interval between the beginning of the PAF Acether superfusion and the first signs of thrombus formation; (b) the td interval is the duration of the thrombotic phenomenon; (c) the O(t) curve indicates the number of LDR elements covered by the thrombus image; (d) the D(t) curve represents during each 30×1/9×10^-2 sec interval the greatest potential deviation on one of the LDR elements covered by the thrombus image; (e) the T(t) curve represents the summation of the potentials registered on the LDR elements during a time interval of 30×1/9×10^-2 sec the TTV(t) curve results from the integration of the T(t) values in function of time; (f) mD, mT, and mO correspond to the maximal values registered on, respectively, the D(t), T(t), and O(t) curves; (g) TTV is the maximal value of the TTV(t) curve, whereas TVM is the value of this curve up to the point where mT is reached.
In a first series of experiments (10 animals) the effect of local superfusion with PAF Acether (10^-4 M) is investigated.
In a second series of experiments (10 animals) the effects of Ginkgolide B and of kadsurenone have been compared preventively and curatively.

COc1ccc(CCN(C)CCCC(C#N)(c2cc(OC)c(OC)c(OC)c2)C(C)C)cc1OC (stereo not shown) [D 600, methoxy verapamil, reference compound]
PAF Acether induced wheal, Surface (Sprague-Dowley rats): 62.6 mm^2 | deaths/6 (Sprague-Dowley rats; group of 6 rats): two | PAF Acether induced wheal, Coloration OD (Sprague-Dowley rats): 0.664 OD | PAF Acether induced wheal, Coloration % decrease (Sprague-Dowley rats): -42% | PAF Acether induced wheal, Surface % decrease (Sprague-Dowley rats): -39%

C[C@@H]1C(=O)O[C@H]2C[C@@]34[C@H]5C[C@@H](C(C)(C)C)[C@]36[C@@H](OC(=O)[C@@H]6O)O[C@@]4(C(=O)O5)[C@]21O [Ginkgolide A]
IC50 (human PRP): 90 µM | effect against aggregation induced by other known aggregants [1]: totally ineffective | PAF Acether induced wheal, Surface (Sprague-Dowley rats): 64.3 mm^2 | PAF Acether induced wheal, Coloration OD (Sprague-Dowley rats): 0.631 OD | PAF Acether induced wheal, Coloration % decrease (Sprague-Dowley rats): -45% | PAF Acether induced wheal, Surface % decrease (Sprague-Dowley rats): -37% | IC50 ([2]; PAF Acether 2.5 nM): 8.32 µM | IC50 ([2]; PAF Acether 5 nM): 13.2 µM | inhibition at 30 µg/mL ([3]; 30 μg/ml, p < 0.001): 72.8% | Contraction induced by PAF Acether (3 ng) (Arbitrary Units) [3]: 10.30 ± 2.33 Arbitrary Units | % of bronchoconstriction (Hartley guinea-pig): 13.3% | % of inhibition (bronchoconstriction) (Hartley guinea-pig): 84.1% | % of aggregation with respect to control (human platelets; blood take at 0.5 h): 0% | % of aggregation with respect to control (human platelets; blood take at 1.0 h): 5.7% | Extravasation (O.D.) (New-Zealand rabbits; PAF Acether 2 nmol/kg): 0.903 O.D. | Extravasation (O.D.) (New-Zealand rabbits; PAF Acether 4 nmol/kg): 0.881 O.D. | Behaviour: behavioural modifications (New-Zealand rabbits): No behavioural | Behaviour: deaths (New-Zealand rabbits): No death | inhibition at 10 µM (PAF-Acether receptor): 67%

CC1C(=O)OC2C(O)C34C5OC(=O)C3(OC3OC(=O)C(O)C34C(C(C)(C)C)C5O)C12O (stereo not shown) [Ginkgolide C]
IC50 (human PRP): 150 µM | effect against aggregation induced by other known aggregants [1]: totally ineffective | PAF Acether induced wheal, Surface (Sprague-Dowley rats): 68.1 mm^2 | PAF Acether induced wheal, Coloration OD (Sprague-Dowley rats): 0.701 OD | PAF Acether induced wheal, Coloration % decrease (Sprague-Dowley rats): -39% | PAF Acether induced wheal, Surface % decrease (Sprague-Dowley rats): -34% | IC50 ([2]; PAF Acether 2.5 nM): 15.3 µM | IC50 ([2]; PAF Acether 5 nM): 25.4 µM | inhibition at 30 µg/mL [3]: 70.8% | Contraction induced by PAF Acether (3 ng) (Arbitrary Units) [3]: 11.08 ± 2.42 Arbitrary Units | % of bronchoconstriction (Hartley guinea-pig): 17.0% | % of inhibition (bronchoconstriction) (Hartley guinea-pig): 78.6% | % of aggregation with respect to control (human platelets; blood take at 0.5 h): 0% | % of aggregation with respect to control (human platelets; blood take at 1.0 h): 10.6% | Extravasation (O.D.) (New-Zealand rabbits; PAF Acether 2 nmol/kg): 0.910 O.D. | Extravasation (O.D.) (New-Zealand rabbits; PAF Acether 4 nmol/kg): 0.875 O.D. | Behaviour: behavioural modifications (New-Zealand rabbits): No behavioural | Behaviour: deaths (New-Zealand rabbits): No death | inhibition at 10 µM (PAF-Acether receptor): 83%

CC1C(=O)OC2C1C13OC4OC(=O)C(O)C45C(C(C)(C)C)C(O)C(OC1=O)C35C2O (stereo not shown) [Ginkgolide M]
effect against aggregation induced by other known aggregants [1]: totally ineffective | IC50 ([2]; PAF Acether 2.5 nM): 122 µM | IC50 ([2]; PAF Acether 5 nM): 20.2 µM | inhibition at 100 µM (PAF-Acether receptor): 79%

C=CCC1=C[C@@]2(OC)C(=CC1=O)O[C@H](c1ccc(OC)c(OC)c1)[C@H]2C [Kadsurenone, kadsurenone, reference compound]
IC50 (human PRP): 130 µM | thrombus formation when superfused with PAF Acether (preventive) ([4]; PAF Acether superfusion): no thrombus appeared | time for disappearance of pre-formed thrombus (curative) ([4]; PAF Acether-induced thrombus): about 4.30 minutes | IC50 ([2]; PAF Acether 2.5 nM): 9.94 µM | IC50 ([2]; PAF Acether 5 nM): 14 µM

— patent publication US4734280A, “Treatment or prevention of PAF Acether-induced maladies” (priority 1984, dated 1988)
